Test results as given in US20240043403A1, “HETEROARYL CARBOXAMIDE COMPOUND” (Astellas Pharma Inc., priority 2020, published 2024).
Where a name gives a salt, the structure may show the parent alone.

The molecules below were run against human recombinant DGK ξ (Homo sapiens (Human), UniProt Q13574) (assay: Evaluation of DGK ξ inhibitory effect (ADP-Glo Kinase Assay)). Conditions: ADP-Glo luminescence.
Format: biochemical
Description: Test Example 1. Evaluation of DGK ξ Inhibitory Effect
The inhibitory effect of a test compound on human recombinant DGK ξ (Cama Biosciences, Inc., 12-410-20N) was examined by the following method in which detection is performed with ADP-Glo™ Kinase Assay (Promega Corporation).
To a 384-well plate (Greiner Bio-One Co., Ltd.), 3 μL of a DGK ξ enzyme dissolved in an assay buffer (40 mM Tris-HCl pH 7.5, 10 mM MgCl2, 1 mM dithiothreitol (DTT) and 0.1 mg/mL bovine serum albumin (BSA)) (90 ng/mL) was added, and 3 μL of the test compound diluted with the same assay buffer was added so that an intended final concentration was obtained. The mixture was left standing at room temperature for 15 minutes, 3 μL of a substrate (150 μM 1-oleoyl-2-acetyl-sn-glycerol (Sigma-Aldrich Co. LLC), 480 μM phosphatidylserine (Avanti, Inc.) and 150 μM UltraPure-ATP (attached to ADP-Glo)) was then added, and the mixture was left standing at room temperature for 30 minutes to react. Thereafter, 3 μL of an ADP-Glo Reagent was added, and the mixture was left standing at room temperature for 40 minutes to stop the enzyme reaction. Further, 6 μL of a Kinase-Detection Reagent was added, the mixture was left standing at room temperature for 30 minutes, and the luminescence was then measured using ARVO X3 (PerkinElmer, Inc.). The half maximal inhibitory concentration (IC50) was calculated by Sigmoid-Emax model non-linear regression analysis, where the signal value in solvent treatment was set to 0% inhibition and the signal value without addition of the DGK ξ enzyme was set to 100% inhibition. […] In the table. Ex represents the number of each Example described below.

human recombinant DGK ξ, sequence (Q13574 whole entry): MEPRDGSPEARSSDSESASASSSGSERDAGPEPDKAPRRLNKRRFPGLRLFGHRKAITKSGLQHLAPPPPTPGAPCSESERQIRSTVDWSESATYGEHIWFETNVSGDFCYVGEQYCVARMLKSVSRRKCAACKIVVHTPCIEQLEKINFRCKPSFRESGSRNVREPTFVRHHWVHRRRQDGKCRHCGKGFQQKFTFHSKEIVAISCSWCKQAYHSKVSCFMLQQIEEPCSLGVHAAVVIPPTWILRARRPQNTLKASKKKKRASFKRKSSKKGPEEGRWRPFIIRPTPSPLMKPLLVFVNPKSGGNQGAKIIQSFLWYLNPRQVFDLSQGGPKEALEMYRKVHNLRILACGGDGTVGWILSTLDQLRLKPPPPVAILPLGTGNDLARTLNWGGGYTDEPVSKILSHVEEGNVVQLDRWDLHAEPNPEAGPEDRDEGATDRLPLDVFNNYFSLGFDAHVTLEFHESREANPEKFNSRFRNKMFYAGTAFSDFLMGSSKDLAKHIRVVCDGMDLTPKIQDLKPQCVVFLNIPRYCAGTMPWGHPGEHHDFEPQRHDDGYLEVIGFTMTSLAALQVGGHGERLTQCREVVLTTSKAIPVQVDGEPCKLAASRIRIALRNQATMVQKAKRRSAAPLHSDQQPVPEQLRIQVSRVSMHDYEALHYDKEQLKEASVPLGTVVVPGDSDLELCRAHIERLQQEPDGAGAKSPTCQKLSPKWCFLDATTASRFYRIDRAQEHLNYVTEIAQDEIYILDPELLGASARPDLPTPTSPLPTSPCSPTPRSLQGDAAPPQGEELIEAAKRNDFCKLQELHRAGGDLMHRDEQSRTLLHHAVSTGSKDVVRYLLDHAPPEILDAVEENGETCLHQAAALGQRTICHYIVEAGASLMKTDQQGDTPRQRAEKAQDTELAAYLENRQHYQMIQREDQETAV

Point of comparison: `NC[C@@H]1CCCN(c2c(NC(=O)c3ccn(CC(F)F)n3)ccc(Oc3ccc(F)cc3)c2C(F)(F)F)C1` [Example 8], IC50 88 nM. Against it:
- NC[C@@H]1CCCN(c2c(NC(=O)c3ccn(CC(F)F)n3)ccc(Oc3ccccc3)c2C(F)(F)F)C1 [Example 2] — 3.1-fold lower, 28 nM
- NC[C@@H]1CCCN(c2c(NC(=O)c3ccn(C(F)F)n3)ccc(Oc3ccccc3)c2C(F)(F)F)C1 [Example 3] — 1.7-fold higher, 150 nM
- NC[C@@H]1CCCN(c2c(NC(=O)c3ccn(CC(F)F)n3)ccc(OC3CCCC3)c2C(F)(F)F)C1 [Example 4] — 1.9-fold higher, 170 nM
- NC[C@@H]1CCCN(c2c(NC(=O)c3ccn(CC(F)F)n3)ccc(OC3CC3)c2C(F)(F)F)C1 [Example 5] — 3.8-fold higher, 330 nM
- NC[C@@H]1CCCN(c2c(NC(=O)c3ccn(CC(F)F)n3)ccc(Oc3ccccc3F)c2F)C1 [Example 6] — 1.5-fold lower, 57 nM
- NC[C@@H]1CCCN(c2c(NC(=O)c3ccn(CC(F)F)n3)ccc(Oc3ccccc3Cl)c2C(F)(F)F)C1 [Example 9] — 9.5-fold lower, 9.3 nM
- O=C(Nc1ccc(Oc2ccccc2F)c(C(F)(F)F)c1N1CCC[C@@H](CNC2CC2)C1)c1ccn(CC(F)F)n1 [Example 10] — within 1.5-fold, 93 nM
- NC[C@@H]1CCCN(c2c(NC(=O)c3cccn(CC(F)F)c3=O)ccc(Oc3ccccc3F)c2C(F)(F)F)C1 [Example 11] — 2.5-fold lower, 35 nM
- CNC[C@H]1CN(c2c(NC(=O)c3ccn(CC(F)F)n3)ccc(C3CCCC3)c2C(F)(F)F)CCN1C [Example 14] — 1.7-fold higher, 150 nM
- CN1CCN(c2c(NC(=O)c3cccn(CC(F)F)c3=O)ccc(Oc3ccccc3Cl)c2C(F)(F)F)C[C@@H]1CN [Example 15] — within 1.5-fold, 99 nM
- CN1CCN(c2c(NC(=O)c3cccn(CC(F)F)c3=O)ccc(Oc3ccccc3F)c2C(F)(F)F)C[C@@H]1CN [Example 16] — within 1.5-fold, 73 nM
- CN1CCN(c2c(NC(=O)c3ccn(CC(F)F)n3)ccc(OC3CCC3)c2C(F)(F)F)C[C@@H]1CN [Example 17] — 2.2-fold higher, 190 nM
- CN1CCN(c2c(NC(=O)c3ccn(CC(F)F)n3)ccc(Oc3ccc(F)cc3F)c2C(F)(F)F)C[C@@H]1CN [Example 18] — within 1.5-fold, 130 nM
- CN1CCN(c2c(NC(=O)c3ccn(CC(F)F)n3)ccc(Oc3ccccc3F)c2C(F)(F)F)C[C@H]1CN [Example 19] — 11-fold higher, 960 nM
- CN1CCN(c2c(NC(=O)c3cccn(CC(F)F)c3=O)ccc(Oc3ccccc3F)c2C(F)(F)F)C[C@H]1CN [Example 21] — 12-fold higher, 1100 nM
- CNC[C@H]1CN(c2c(NC(=O)c3coc(-c4ccnnc4)n3)ccc(Oc3ccccc3F)c2C(F)(F)F)CCN1C [Example 22, N-[4-(2-fluorophenoxy)-2-{(3S)-4-methyl-3-[(methylamino)methyl]piperazin-yl}-3-(trifluoromethyl)phenyl]-2-(pyridazin-4-yl)-1,3-oxazole-4-carboxamide trihydrochloride] — 4.9-fold lower, 18 nM
- CNC[C@H]1CN(c2c(NC(=O)c3ccn(CC(F)F)n3)ccc(Oc3ccccc3F)c2C(F)(F)F)CCN1C [Example 23] — within 1.5-fold, 63 nM
- CNC[C@H]1CN(c2c(NC(=O)c3ccn(CC(F)F)n3)ccc(Oc3ccccc3Cl)c2C(F)(F)F)CCN1C [Example 24] — 2.4-fold lower, 36 nM
- CNC[C@H]1CN(c2c(NC(=O)c3ccn(CC(F)F)n3)ccc(Oc3ccccc3F)c2F)CCN1C [Example 25] — within 1.5-fold, 73 nM
- CNC[C@H]1CN(c2c(NC(=O)c3ccn(CC(F)F)n3)ccc(Oc3ccccc3Cl)c2Cl)CCN1C [Example 26] — 4.6-fold lower, 19 nM
- CNC[C@H]1CN(c2c(NC(=O)c3ccn(CC(F)F)n3)ccc(Oc3ccccc3F)c2Cl)CCN1C [Example 27] — 2.4-fold lower, 37 nM
- CN1CCN(c2c(NC(=O)c3ccn(CC(F)F)n3)ccc(Oc3ccc(F)cc3)c2C(F)(F)F)C[C@@H]1CN [Example 28] — 2.7-fold higher, 240 nM
- NC[C@@H]1CCCN(c2c(NC(=O)c3ccn(-c4ccnnc4)n3)ccc(Oc3ccccc3)c2C(F)(F)F)C1 [Example 31] — 3.8-fold lower, 23 nM
- N#Cc1ccccc1Oc1ccc(NC(=O)c2ccn(CC(F)F)n2)c(N2CCC[C@@H](CN)C2)c1C(F)(F)F [Example 32] — within 1.5-fold, 100 nM
- NC[C@@H]1CCCN(c2c(NC(=O)c3ccn(-c4ccnnc4)n3)ccc(Oc3ccccc3Cl)c2C(F)(F)F)C1 [Example 33] — 18-fold lower, 4.8 nM
